# Measured values: patent EP2724723A1, “Tegaserod for use in the treatment of nerve injuries” (Universitätsklinikum Hamburg-Eppendorf, priority 2012, dated 2014)
# How the values were obtained:
# [1] = system: motoneurons isolated from NCAM^-/- mice; assay: In vitro neurite outgrowth of NCAM-deficient motoneurons; format: cell-based; conditions: tegaserod 100 nM; colominic acid 3 µM; PSA mimicking peptide 30 µM; Figure 2B
# Protocol: (§1) Primary cultures of cerebellar neurons or Schwann cells were prepared from cerebellum or dorsal root ganglia of 7-day-old C57BL/6J mice as described in Mehanna et al. (2009), Brain, 132 (Pt 6): 1449-62 and Loers et al. (2005), J. Neurochem., 92(6): 1463-76. Motoneurons were prepared from E14 C57BL/6J mice as described in Simova et al. (2006), Ann. Neurol., 60(4): 430-437. In brief, 48-well plates were coated with 0.01% poly-L-lysine (PLL) or poly-L-ornithine (PLO) overnight at 4°C, washed twice with water and air-dried. Directly before use, plates were washed twice with PBS, and Schwann cells, cerebellar neurons (PLL) or motoneurons (PLO) were seeded at a density of 1.25 x 10^4 (Schwann cells and motoneurons) or 2.5 x 10^4 cells (cerebellar neurons) per well in 250 µl of corresponding serum-free culture medium. Soluble organic compounds were added to the culture 1 h after seeding in increasing concentrations. […] Morphological quantification of neurite or process lengths was performed as described in Mehanna et al. (2009), see above. Schwann cell processes and neurites of cerebellar neurons with a length of at least one cell body diameter were counted and total neurite or process length per cell was determined by counting 50 cells in each of two wells per experiment. […]
# Schwann cells = assay: In vitro process outgrowth of Schwann cells; format: cell-based, C57BL/6J mice; conditions: compared to control; Figure 2C, D
# Protocol: as §1
# [2] = system: PSA specific monoclonal antibody 735; assay: Surface plasmon resonance competition experiment (BIAcore 3000); format: binding; conditions: compared to antibody not mixed with tegaserod; antibody 10 nM pre-incubated with 1-30 µM compound; Figure 1B
# Protocol: The running buffer was phosphate-buffered saline (PBS, pH 7.4). PSA mimicking peptide coupled to catalase was covalently immobilized to CM5 sensor chips (carboxymethyl dextran; GE Healthcare Europe GmbH) via primary amino groups, using standard coupling protocols (Karlsson et al. (1991); J. Immunol. Methods 145 (1-2): 229-240. In brief, the sensor surface was activated by a 7-min pulse of 0.2 M N-ethyl-N-(3-dimethylaminopropyl) carbodiimide and 50 mM N-hydroxysuccinimide. The PSA peptide solution (10 nM in 10 mM sodium acetate, pH 5.2) was then injected for 5-10 min. Ethanolamine (1 M, pH 8.5) was used to block remaining activated carboxyl groups. Ligand densities of 100-150 fmol/mm^2 were reached. Immobilized control peptide (10 nM PSA scrambled peptide coupled to catalase) was used as a reference surface. […] The data were analyzed using the BIAevaluation 3.0 software. All sensorgrams were corrected for background and bulk refractive index by subtraction of the reference.
# To confirm that tegaserod binds specifically to antibody 735, a competition experiment was performed. First, the PSA specific monoclonal antibody 735 (10 nM) was pre-incubated for 1 h at room temperature with different molar concentrations (1, 2, 5, 8, 15 and 30 µM) of tegaserod or control compound. Then the antibody/organic compound solutions were injected ([…]) to the PSA peptide-coupled chip. […]
# [3] = system: 2 mm femoral nerve defect; assay: Femoral nerve regeneration: locomotor recovery (FBA, PLR, recovery index); format: in vivo, C57BL/6J mice; conditions: for average FBA (foot base angle): end of the 15-week study, control group 93 degrees
# Description: Briefly, mice were anesthetized and the femoral nerve of the left rear leg exposed. The nerve was bis-sected 3 mm proximal to the branching of the saphenous and motor branches, and the nerve ends were sutured 0.5 mm into a 3 mm polyethylene conduits with 0.58 mm inner diameter (Becton Dickinson), leaving an overall gap length of 2 mm.
# The FBA measures the angle between the hind paw and a beam as the mouse is pushing and bearing weight with the foot of the injured limb.
# FBA is governed largely by the quadriceps muscle, the major muscular innervation target of the femoral nerve. Mice were trained to walk on a beam for 2 weeks prior to surgery and single frame video motion analysis (Simi Reality Motion Systems, Simi Sportsplayer) was used to quantify the angle between the beam and the foot when the toes from the left leg are fully extended.
# As a complement to assessment of the FBA that measures a weight-bearing reflexive movement, the protraction limb ratio (PLR) is indicative of voluntary movement of the hind limb. […] Mice are suspended by the tail above a pencil and allowed to grasp the pencil. The PLR is measured by dividing the relative length that the uninjured hind leg extends to the pencil by the length that the injured hind limb extends.
# To account for any variability between animals, an index is calculated that takes into account the initial FBA and PLR of animals prior to surgery. The recovery index is calculated by the equation: RI= (Xday y-Xday 1wk)/(Xday 0-Xday 7) x 100, where Xday0 is the measurement before injury, Xday 1wk is the measurement one week after injury, and Xday y is the measurement at the study endpoint. An RI value 100 indicates complete recovery of function.
# [4] = system: regenerated femoral nerves; assay: Histology of the regenerated femoral nerve; format: in vivo, C57BL/6J mice; conditions: 15 weeks; for myelinated axons: vehicle control 78%; for average number of axons within regenerated nerves: vehicle control 432, unsevered 608
# Protocol: Tegaserod was evaluated in a 2 mm femoral nerve defect of 12-week old C57BL/6J mice as previously described in Mehanna et al. (2009), see above. Briefly, mice were anesthetized and the femoral nerve of the left rear leg exposed. The nerve was bis-sected 3 mm proximal to the branching of the saphenous and motor branches, and the nerve ends were sutured 0.5 mm into a 3 mm polyethylene conduits with 0.58 mm inner diameter (Becton Dickinson), leaving an overall gap length of 2 mm. Conduits were filled with PuraMatrix peptide hydrogel (Becton Dickinson 354250) using 2x PBS as the gelation stimulant. Tegaserod was dissolved in the 2x PBS at concentrations of 500 nM and 5,000 nM, resulting in final concentrations of 250 nM and 2,500 nM once the PBS was combined 1:1 v/v with the PuraMatrix.
# At the end of the recovery period, femoral nerves were fixed and histology was performed to assess nerve morphology within the regenerated region 1 mm into the 2 mm gap. Animals were perfused with 4% paraformadehyde and explanted nerves were post-fixed in osmium tetroxide and embedded in resin. One and 2 µm thick sections were cut into the center of the regenerated nerve and sections were stained with 1% toluidine blue and 1% borax. Sections were imaged with a Zeiss Axiocam, using 20x, 40x, and 100x objectives and AxioVision imaging software. ImageJ software was used to calculate total nerve area, number of axons, % of myelinated axons, and g-ratio as described Mehanna et al. (2009), see above.
structure (smiles),measurement,setting,value
"[H]/N=C(/NCCCCC)N/N=C/c1c[nH]c2ccc(OC)cc12 [tegaserod, (E)-but-2-enedioic acid; 1-[[(Z)-(5-methoxyindol-3-ylidene)methyl]amino]-2-pentylguanidine]",effect on neurite extension of NCAM^-/- motoneurons (in words),[1],no enhancement in neurite extension
same,effect on process outgrowth of Schwann cells (in words),Schwann cells,significantly enhance neurite/process outgrowth compared to control
same,disruption of the capability of mAb 735 to bind to the PSA peptide mimic bound to the chip surface,[2],80%
same,time after nerve injury at which sustained improvement of the FBA first became apparent,[3]; 250 nM in hydrogel conduit,6 weeks
same,time at which FBA improvement became statistically significant from the vehicle control group,[3]; 250 nM in hydrogel conduit,10 weeks
same,average FBA (foot base angle),[3]; 250 nM in hydrogel conduit,82 degrees
same,average recovery index (RI) for the FBA,"[3]; 250 nM, 15 weeks, vehicle control 37%",62%
same,time to return to pre-surgery PLR (protraction limb ratio),"[3]; 250 nM, vehicle control 8 weeks",≤ 6 weeks
same,PLR versus other groups (in words),"[3]; 2,500 nM",remained consistently higher than the other two groups
same,FBA recovery versus vehicle control (in words),"[3]; 2,500 nM in hydrogel conduit",did not show statistically significant difference from vehicle control
same,average FBA (foot base angle),"[3]; 2,500 nM in hydrogel conduit",87 degrees
same,recovery index (RI) for the FBA,"[3]; 2,500 nM, 15 weeks, vehicle control 37%, considerable variation",51%
same,RI of the PLR reached by the majority of mice,"[3]; 2,500 nM, a single mouse did not recover",100%
same,myelinated axons,[4]; 250 nM,88%
same,average number of axons within regenerated nerves,[4]; 250 nM,589 axons
same,myelinated axons,"[4]; 2,500 nM",83%
same,average number of axons within regenerated nerves,"[4]; 2,500 nM",434 axons
